Experiment [1] has as its system Clostridium perfringens ATCC10873. Format: cell-based. Particulars: for Shape: 8 hours; for Agglomeration (text) / Shape of the bacterial cells: Example 2 strains.
Experiment [2] concerns Salmonella enterica IAM1648. Type of experiment: cell-based. Also noted: key: Good: Those in which agglomeration observed under upright microscope; Poor: Those in which no agglomeration observed under upright microscope.
Experiment [3] has as its system Clostridium perfringens ATCC10873. Type of experiment: cell-based. Particulars: Table 4, 500 mM. Also noted: key: Good: Those in which agglomeration observed under upright microscope; Poor: Those in which no agglomeration observed under upright microscope.
Experiment [4] has the same test system. Type of experiment: cell-based. More on the design: key: Good: Agglomeration effect observed; Poor: No agglomeration effect observed.
The subject of the next experiment is Escherichia coli MG1655. Type of experiment: cell-based. Also noted: key: Good: Those in which agglomeration observed under upright microscope; Poor: Those in which no agglomeration observed under upright microscope.
Experiment [5] concerns Clostridium perfringens SM101. Type of experiment: cell-based. More on the design: unit not given here. Particulars: bacterial cells, 500 mM, 8 hours, diluted 100 times.
The subject of experiment [6] is Clostridium perfringens SM101 (CPE toxin producer). Format: cell-based. More on the design: key to Agglomeration: Good: Agglomeration effect observed; Poor: No agglomeration effect observed. Particulars: 500 mM.
In experiment [7] the test system is Clostridium perfringens CNEOP004 (netB toxin producer). Type of experiment: cell-based. Also noted: key to Agglomeration: Good: Agglomeration effect observed; Poor: No agglomeration effect observed. Particulars: 500 mM.
Experiment [8] relates to Clostridium perfringens ATCC10873. Type of experiment: cell-based. Also noted: key to Settling: Good: Settling effect observed; Poor: No settling effect observed. Particulars: for Settling: 37° C., 8 hours; for Concentration required for settling / at which settling was confirmed: optical density about 2.0 at 660 nm.
Experiment [9] relates to Clostridium perfringens CNEOP004. Type of experiment: cell-based. More on the design: unit not given here. Particulars: bacterial cells, 500 mM, 8 hours, diluted 100 times.
Experiment [10] concerns Lactobacillus casei ATCC393. Format: cell-based. Also noted: key to Agglomeration: Good: Those in which agglomeration observed under upright microscope; Poor: Those in which no agglomeration observed under upright microscope.
Experiment [11] deals with Bifidobacterium animalis JCM1190. Type of experiment: cell-based. More on the design: key to Agglomeration: Good: Those in which agglomeration observed under upright microscope; Poor: Those in which no agglomeration observed under upright microscope.
In experiment [12] the test system is Clostridium perfringens ATCC10873. Type of experiment: cell-based. More on the design: unit not given here. Particulars: bacterial cells, 8 hours, diluted 100 times.
Details of experiment [13]: species or system chickens (broilers, UK Chunky). Particulars: in vivo.
Another experiment has as its system Clostridium perfringens. Type of experiment: in vivo, chickens (broilers). Particulars: for Dead birds Total: 500 chickens.
For experiment [14], the system named is mixed bacterial cells of Clostridium perfringens ATCC10873, Salmonella enterica IAM1648 and E. coli MG1655. Type of experiment: cell-based. Particulars: 500 mM in combination with Arabic Gum 1%; OD660 about 2.0, 37° C.
Setting [15] is: Day 0-14, BMD 55 ppm, Coated-KCl 47 ppm in feed.
The mark [16] stands for this setting: Day 15-28, BMD 55 ppm, Coated-KCl 47 ppm in feed.
[17] abbreviates: Day 29-42, BMD 55 ppm, Coated-KCl 47 ppm in feed.
Where [18] appears, read: Table 2-1, 500 mM, w/AG 1%, 8 hours.
Setting [19] is: Table 2-1, 500 mM, without AG, 8 hours.

Values joined by “and” are separate entries in the source; they are usually repeats but may differ in a detail not shown here. Equal values may be shown once. “Also recorded” adds a separate entry of the source. Read-outs that look alike come from different tables or passages of the source.

`[Cl][Fe][Cl]` [FeCl2]: the Shape result is “Rod-shaped” in [1] (10 mM, without AG); “Rod-shaped” in experiment [1] (50 mM, without AG); “Rod-shaped” in experiment [6] (without AG, 8 hours); “Rod-shaped” in experiment [7] (without AG, 8 hours). For the same compound, the “Concentration at which bacterial cells agglomerated” value in [1] (absence of AG) is reported as no less than 10 mM. Besides, the “Agglomeration (text)” value in [1] (absence of AG) is recorded as “showed an agglomeration effect; also recorded: agglomerated in the state of bacilli”. Moreover, the Agglomeration entry in experiment [2] is recorded as “Poor”; in experiment [3] (without AG), “Good”; in [4] (Table 2-1, 10 mM, without AG, 8 hours), “Good”; in experiment [4] (Table 2-1, 50 mM, without AG, 8 hours), “Good”; in [4] (Table 3-1, 10 mM, without AG), “Good”; in experiment [4] (Table 3-1, 50 mM, without AG) it was “Good”. Besides, the Agglomeration entry in the experiment with Escherichia coli MG1655 was “Poor”; in [6] (Table 2-2, without AG, 8 hours), “Good”; in experiment [6] (Table 3-2, without AG), “Good”; in experiment [7] (Table 2-3, without AG, 8 hours), “Good”; in experiment [7] (Table 3-3, without AG), “Good”; in experiment [10], “Good”. Moreover, the Agglomeration result in experiment [11] was “Good”. Besides, the Zeta potential in experiment [5] (without AG) was determined as 4.1; in [9] (without AG) it was 21.5; in experiment [12] (10 mM, without AG), 0.8; in [12] (50 mM, without AG), 20.7. In addition, the Settling result in experiment [8] (10 mM, without AG) is “Good”; in [8] (50 mM, without AG) it was “Good”. Moreover, in experiment [8] (absence of AG), the “Concentration required for settling / at which settling was confirmed” value was no less than 10 mM. The “Agglomeration effect” value in experiment [10] and in [11] was “showed an agglomeration effect” each time.
Take bacitracin methylene disalicylate [BMD]: in [13], the “BWG %: versus Control (Non treatment)” value was 106.0% and 103.9% and 103.5%; the “Weight gain as compared with Control (Non treatment), in words” value was “weight gain was improved”. Moreover, in the experiment on Clostridium perfringens (setting [15]), the “Dead birds Total” value is on record as 19 and the “Dead birds NE Caused” value came out at 0. In the experiment with Clostridium perfringens (setting [16]), the “Dead birds Total” value is recorded as 10 and the “Dead birds NE Caused” value amounted to 4. In the experiment on Clostridium perfringens (setting [17]), the “Dead birds Total” value stood at 6 and the “Dead birds NE Caused” value is 0. The “NE Caused Mortality” value in the experiment on Clostridium perfringens (average, 6 weeks, BMD 55 ppm, Coated-KCl 47 ppm in feed) was determined as 0.80. Also, the “NE Lesion Score” value in the experiment with Clostridium perfringens (day 17, three birds per pen, 0 = none to 3 = severe, average, BMD 55 ppm, Coated-KCl 47 ppm) was 0.30. In the experiment on Clostridium perfringens (text b129), the “Mortality reduced to, as compared with Challenge Control” value came out at 13.2%.
In the case of `[Cl-].[Cl-].[Mg+2]` [MgCl2], the Shape result was “Rod-shaped” in [1] (500 mM, w/AG 1%); “Rod-shaped” in [1] (500 mM, without AG); “Rod-shaped” in experiment [6] (w/AG 1%, 8 hours); “Rod-shaped” in experiment [6] (without AG, 8 hours); “Rod-shaped” in experiment [7] (w/AG 1%, 8 hours); “Rod-shaped” in [7] (without AG, 8 hours). In addition, the results for the “Agglomeration (text)” value in experiment [1] (absence of AG) and in [1] (coexistence with AG) were “no agglomeration was observed” and “agglomeration of Clostridium perfringens was observed”, respectively. Moreover, the “Shape of the bacterial cells” value in [1] (absence of AG) is reported as “shape as bacilli remained unchanged”. Besides, the Agglomeration result in [2] is “Poor and Good”; in [3] (W/AG 1%), “Good”; in experiment [3] (without AG), “Poor”; in [4] (setting [18]) it was “Good”; in [4] (setting [19]), “Poor”; in [4] (Table 3-1, 500 mM, W/AG 1%), “Good”. The Agglomeration result in [4] (Table 3-1, 500 mM, without AG) was “Poor”; with Escherichia coli MG1655, “Poor and Good”; in [6] (Table 2-2, w/AG 1%, 8 hours) it was “Good”; in experiment [6] (Table 2-2, without AG, 8 hours), “Poor”; in experiment [6] (Table 3-2, w/AG 1%), “Good”; in experiment [6] (Table 3-2, without AG), “Good”. Moreover, the Agglomeration result in [7] (Table 2-3, w/AG 1%, 8 hours) is “Good”; in experiment [7] (Table 2-3, without AG, 8 hours), “Poor”; in experiment [7] (Table 3-3, w/AG 1%), “Good”; in experiment [7] (Table 3-3, without AG) it was “Good”; in experiment [10] it was “Poor and Good”; in experiment [11], “Poor”. Moreover, the Zeta potential was −10.2 in experiment [5] (w/AG 1%); −12.1 in experiment [5] (without AG); −11.8 in experiment [9] (w/AG 1%); −12 in [9] (without AG); −12.9 in experiment [12] (500 mM, W/AG 1%); −3.2 in [12] (500 mM, without AG). In addition, the “Settling effect” value in [8] (500 mM, absence of AG) is listed as “did not exert a settling effect”; in [8] (500 mM, in combination with AG), “exerted a settling effect”. For the same compound, the Settling entry is “Good” in experiment [8] (500 mM, w/AG 1%) and “Poor” in [8] (500 mM, without AG). Besides, in [8] (absence of AG), the “Concentration required for settling / at which settling was confirmed” value is “over 500 mM”.
In the case of `[Cl-].[Na+]` [NaCl], the Shape result in experiment [1] (500 mM, w/AG 1%) was “Spheroidal”; in [1] (500 mM, without AG) it was “Spheroidal”. For the same compound, the entries for the “Agglomeration (text)” value in experiment [1] (absence of AG) and in experiment [1] (coexistence with AG) were “did not agglomerate” and “agglomerated in the state of cocci”, respectively. Besides, the “Shape of the bacterial cells” value in experiment [1] (absence of AG) is given as “changed from bacilli to cocci”. In addition, the “Agglomeration of the three types of enteric bad bacteria” value in experiment [14] was “can quickly agglomerate”. The figures for the Agglomeration result in [4] (setting [18]) and in [4] (setting [19]) were “Good” and “Poor”, respectively. The Settling result in experiment [8] (20 mM, without AG) is listed as “Poor”; in [8] (100 mM, without AG), “Poor”; in experiment [8] (500 mM, w/AG 1%) it was “Good”; in [8] (500 mM, without AG), “Good”.
Take `[Ca+2].[Cl-].[Cl-]` [CaCl2]: the Shape result in experiment [1] (20 mM, without AG) is “Rod-shaped”; in [1] (100 mM, without AG) it was “Rod-shaped”; in [6] (without AG, 8 hours), “Rod-shaped”; in experiment [7] (without AG, 8 hours) it was “Rod-shaped”. Also, the “Concentration at which bacterial cells agglomerated” value in experiment [1] (absence of AG) is no less than 20 mM. Further, the “Agglomeration (text)” value in experiment [1] (absence of AG) is given as “agglomerated in the state of bacilli”. Besides, the Agglomeration result in experiment [2] is “Poor”; in experiment [3] (without AG) it was “Good”; in experiment [4] (Table 2-1, 20 mM, without AG, 8 hours), “Good”; in experiment [4] (Table 2-1, 100 mM, without AG, 8 hours), “Good”; in [4] (Table 3-1, 20 mM, without AG) it was “Good”; in [4] (Table 3-1, 100 mM, without AG) it was “Good”. The Agglomeration entry is “Poor” in the experiment on Escherichia coli MG1655; “Good” in experiment [6] (Table 2-2, without AG, 8 hours); “Good” in experiment [6] (Table 3-2, without AG); “Good” in experiment [7] (Table 2-3, without AG, 8 hours); “Good” in experiment [7] (Table 3-3, without AG); “Poor” in [10]. The Agglomeration entry in experiment [11] was “Poor”. Moreover, the Zeta potential is recorded as −14.3 in [5] (without AG); −12.3 in experiment [9] (without AG); −4.4 in experiment [12] (20 mM, without AG); −4.0 in experiment [12] (100 mM, without AG). Further, the Settling result in experiment [8] (20 mM, without AG) is “Poor”; in [8] (100 mM, without AG), “Poor”.

The record behind these values is US20240225053A9 (priority 2021, published 2024).
